Holding throughout (type): ADME, organism-based
What all share (settings): in vivo

A short description of series [1]: Bioavailability in Sprague-Dawley rat by HPLC-MS/MS analysis.
Series [2] relates to Plasma. Put plainly: Plasma concentration in monoiodoacetate-induced osteoarthritis rat model at 3 mg/kg, po.
The test system of series [3] is Plasma. The series is described as follows: Plasma concentration in monoiodoacetate-induced osteoarthritis rat model at 10 mg/kg, po.
In series [4] the test system is Plasma. Put plainly: Plasma concentration in monoiodoacetate-induced osteoarthritis rat model at 30 mg/kg, po.

By bioavailability is commonly meant dose-corrected exposure relative to a reference, in per cent.

In turn, `O=C(CN1CCN(c2cccc3c2cnn3-c2ccccc2F)C1=O)N1CCCC1` gave a bioavailability in series [1] of 94%.

In the case of `Fc1ccc2c(c1)c(OCCn1ccnc1)nn2-c1ccccc1F`, the bioavailability in series [1] was 28%.

`O=C1CN(c2cccc3c2cnn3-c2ccccc2F)CCN1CC(=O)N1CC[C@H](F)C1` came in with a bioavailability in series [1] of 84%.

For the compound `O=C1NCCN1CCOc1nn(-c2ccc(F)cc2)c2ccc(F)cc12`, the bioavailability in series [1] amounted to 54%.

`O=C(CN1CCN(c2cccc3c2cnn3-c2ccccc2F)C1=O)N1CC[C@H](F)C1`: the Cp in the series with Plasma [2] is 2.7 µg/mL; with Plasma [3], 6.8 µg/mL; with Plasma [4], 10.5 µg/mL. In series [1], this compound had a bioavailability of 83%.

For the compound `CC(Oc1nn(-c2ccccc2F)c2ccc(F)cc12)C(=O)N1CCOCC1` (configuration not stated), in series [1], the bioavailability is 27%.

Take `O=C1NCCN1CCOc1nn(-c2ccccc2F)c2ccc(F)cc12`: the Cp in the series on Plasma [2] came to 0.05 µg/mL; in the series with Plasma [3], 0.38 µg/mL; in the series on Plasma [4], 1.05 µg/mL. In addition, in series [1], the bioavailability worked out at 17%.

On to `O=C(COc1nn(-c2ccccc2F)c2ccc(F)cc12)N1CCOCC1`, for which, in series [1], the bioavailability turned out to be 22%.

With `CC(C)CC(=O)CN1CCN(c2cccc3c2cnn3-c2ccccc2F)C1=O`, the bioavailability in series [1] amounted to 82%.

With `O=c1[nH]ccn1CCOc1nn(-c2ccccc2F)c2ccc(F)cc12`, the bioavailability in series [1] was 35%.

As to `O=C1NCCN1CCOc1nn(-c2ccc(F)cc2F)c2ccc(F)cc12`, in series [1], the bioavailability is 71%.

(Values after ChEMBL document CHEMBL3797111, “Substituted Indazoles as Nav1.7 Blockers for the Treatment of Pain” (J Med Chem, 2016).)
